# US8541407B2 (ArQule, Inc., priority 2010, dated 2013)
# Target: AKT1 (Homo sapiens (Human), UniProt P31749)
# Assay: Inactive Akt Alpha Screen Assay
# Conditions: non *labeled: Akt Alpha Screen assay; read-out: AKT1 biochemical assay, IC50
# Procedure: AKT1 activity was assayed using the GSK3-derived biotinylated peptide substrate, crosstide (biotin-[…]), and AlphaScreen™ (Amplified Luminescent Proximity Homogeneous Assay) technology. AKT1 activation was achieved by the addition of the activating kinases PDK1 and MAPKAPK2, lipid vesicles, and ATP. The extent of peptide phosphorylation was determined using a phospho-AKT substrate antibody and acceptor beads conjugated to Protein A and donor beads conjugated to streptavidin that bind to the biotin on the peptide. Excitation of the donor beads converted ambient oxygen to excited singlet oxygen which, when in close proximity to acceptor beads, reacted with acceptor beads resulting in signal amplification. […] The plates were incubated for 30 minutes at room temperature, and then stopped in the dark by the addition of 10 μL stop/detection mixture prepared in assay buffer containing EDTA, AlphaScreen™ Streptavidin Donor and Protein A Acceptor beads, and phospho-AKT substrate antibody for final concentrations of 10 mM EDTA, 500 ng/well of both AlphaScreen™ Streptavidin Donor beads and Protein A Acceptor beads, and phospho-AKT substrate antibody at a final dilution of 1:350. Assay plates were incubated for 90 minutes at room temperature in the dark, and the plates were read on a Perkin Elmer Envision Multilabel plate reader (excitation wavelength: […], emission wavelength: 570 nm). […] Envision Instrument Settings: • Instrument: Perkin Elmer Envision • Plate: 96 well • Program Name: • Excitation: Ex Top • Mirror: General Dual—Slot 2 • Excitation Filter: CFP430 Ex.
# AKT1, sequence (P31749 whole entry): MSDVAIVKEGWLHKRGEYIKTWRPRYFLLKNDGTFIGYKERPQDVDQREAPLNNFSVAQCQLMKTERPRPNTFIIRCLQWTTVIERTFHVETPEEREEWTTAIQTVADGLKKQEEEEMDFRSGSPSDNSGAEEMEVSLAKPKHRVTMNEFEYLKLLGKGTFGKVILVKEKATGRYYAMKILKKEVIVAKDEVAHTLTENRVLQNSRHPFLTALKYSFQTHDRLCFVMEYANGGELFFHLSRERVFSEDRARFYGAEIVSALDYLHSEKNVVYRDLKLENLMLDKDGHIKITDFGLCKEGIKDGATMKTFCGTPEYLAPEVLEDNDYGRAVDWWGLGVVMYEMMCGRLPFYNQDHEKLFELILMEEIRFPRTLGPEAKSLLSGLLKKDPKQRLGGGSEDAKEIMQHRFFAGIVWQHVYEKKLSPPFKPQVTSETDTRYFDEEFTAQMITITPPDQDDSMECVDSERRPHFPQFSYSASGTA
row,IC50 [nM],SMILES
1,430,"COc1ccccc1C(=O)N1CCN(Cc2ccc(-c3nnc4n3-c3cccnc3Nc3ccccc3-4)cc2)CC1 [Example 134, (4-(4-(9H-benzo[f]pyrido[2,3-b][1,2,4]triazolo[4,3-d][1,4]diazepin-3-yl)benzyl)piperazin-1-yl)(2-methoxyphenyl)methanone]"
2,250,"c1ccc(-c2nnc(C3CCN(Cc4ccc(-c5nnc6n5-c5ccccc5Nc5ccccc5-6)cc4)CC3)[nH]2)nc1 [Example 129, 3-(4-((4-(5-(pyridin-2-yl)-4H-1,2,4-triazol-3-yl)piperidin-1-yl)methyl)phenyl)-9H-dibenzo[b,f][1,2,4]triazolo[4,3-d][1,4]diazepine]"
3,230,"CC(C)(C)c1ccc(C(=O)Nc2ccc(-c3nnc4n3-c3cccnc3Nc3ccccc3-4)cc2)cc1 [Example 44, N-(4-(9H-benzo[f]pyrido[2,3-b][1,2,4]triazolo[4,3-d][1,4]diazepin-3-yl)phenyl)-4-(tert-butyl)benzamide]"
4,3000,"Cc1ccc(C(=O)N2CCN(Cc3ccc(-c4nnc5n4-c4cccnc4Nc4ccccc4-5)cc3)CC2)cc1 [Example 160, (4-(4-(9H-benzo[f]pyrido[2,3-b][1,2,4]triazolo[4,3-d][1,4]diazepin-3-yl)benzyl)piperazin-1-yl)(p-tolyl)methanone]"
5,4400,"CC(C)CCNCc1ccc(-c2nnc3n2-c2cccnc2Nc2ccccc2-3)cc1 [Example 68, N-(4-(9H-benzo[f]pyrido[2,3-b][1,2,4]triazolo[4,3-d][1,4]diazepin-3-yl)benzyl)-3-methylbutan-1-amine]"
6,520,"COc1ccccc1C(=O)Nc1ccc(-c2nnc3n2-c2cccnc2Nc2ccccc2-3)cc1 [Example 41, N-(4-(9H-benzo[f]pyrido[2,3-b][1,2,4]triazolo[4,3-d][1,4]diazepin-3-yl)phenyl)-2-methoxybenzamide]"
7,4900,"O=C(c1ccc(F)c(F)c1)N1CCN(Cc2ccc(-c3nnc4n3-c3cccnc3Nc3ccccc3-4)cc2)CC1 [Example 143, (4-(4-(9H-benzo[f]pyrido[2,3-b][1,2,4]triazolo[4,3-d][1,4]diazepin-3-yl)benzyl)piperazin-1-yl)(3,4-difluorophenyl)methanone]"
8,5700,"OC1CCCN(Cc2ccc(-c3nnc4n3-c3cccnc3Nc3ccccc3-4)cc2)C1 (stereo not shown) [Example 83, 1-(4-(9H-benzo[f]pyrido[2,3-b][1,2,4]triazolo[4,3-d][1,4]diazepin-3-yl)benzyl)piperidin-3-ol]"
9,1100,"CN(CCc1ccccn1)Cc1ccc(-c2nnc3n2-c2cccnc2Nc2ccccc2-3)cc1 [Example 75, N-(4-(9H-benzo[f]pyrido[2,3-b][1,2,4]triazolo[4,3-d][1,4]diazepin-3-yl)benzyl)-N-methyl-2-(pyridin-2-yl)ethanamine]"
10,7900,"c1c[nH]c(-c2nnc3n2-c2cccnc2Nc2ccccc2-3)c1 [Example 4, 3-(1H-pyrrol-2-yl)-9H-benzo[f]pyrido[2,3-b][1,2,4]triazolo[4,3-d][1,4]diazepine]"
11,5500,"CN1CCC(N(C)Cc2ccc(-c3nnc4n3-c3cccnc3Nc3ccccc3-4)cc2)CC1 [Example 88, N-(4-(9H-benzo[f]pyrido[2,3-b][1,2,4]triazolo[4,3-d][1,4]diazepin-3-yl)benzyl)-N,1-dimethylpiperidin-4-amine]"
12,5200,"c1ccc2c(c1)Nc1ncccc1-n1c(-c3ccc(CN4CCN(Cc5ccncc5)CC4)cc3)nnc1-2 [Example 74, 3-(4-((4-(pyridin-4-ylmethyl)piperazin-1-yl)methyl)phenyl)-9H-benzo[f]pyrido[2,3-b][1,2,4]triazolo[4,3-d][1,4]diazepine]"
13,110,"O=C(Nc1ccc(-c2nnc3n2-c2cccnc2Nc2ccccc2-3)cc1)c1ccccc1F [Example 51, N-(4-(9H-benzo[f]pyrido[2,3-b][1,2,4]triazolo[4,3-d][1,4]diazepin-3-yl)phenyl)-2-fluorobenzamide]"
14,4800,"CCN(CC)C(=O)C1CCCN(Cc2ccc(-c3nnc4n3-c3cccnc3Nc3ccccc3-4)cc2)C1 (stereo not shown) [Example 81, 1-(4-(9H-benzo[f]pyrido[2,3-b][1,2,4]triazolo[4,3-d][1,4]diazepin-3-yl)benzyl)-N,N-diethylpiperidine-3-carboxamide]"
15,1100,"c1ccc2c(c1)Nc1ncccc1-n1c(-c3ccc(C4CCCN4)cc3)nnc1-2 (stereo not shown) [Example 196, 3-(4-(pyrrolidin-2-yl)phenyl)-9H-benzo[f]pyrido[2,3-b][1,2,4]triazolo[4,3-d][1,4]diazepine]"
16,2900,"O=C(NCc1ccc(-c2nnc3n2-c2cccnc2Nc2ccccc2-3)cc1)Nc1ccccc1 [Example 107, 1-(4-(9H-benzo[f]pyrido[2,3-b][1,2,4]triazolo[4,3-d][1,4]diazepin-3-yl)benzyl)-3-phenylurea]"
17,7100,"CC(C)CN(C)Cc1ccc(-c2nnc3n2-c2cccnc2Nc2ccccc2-3)cc1 [Example 85, N-(4-(9H-benzo[f]pyrido[2,3-b][1,2,4]triazolo[4,3-d][1,4]diazepin-3-yl)benzyl)-N,2-dimethylpropan-1-amine]"
18,48,"O=c1[nH]c(-c2ccccc2)cn1C1CCN(Cc2ccc(-c3nnc4n3-c3cccnc3Nc3ccccc3-4)cc2)CC1 [Example 191, 1-(1-(4-(9H-benzo[f]pyrido[2,3-b][1,2,4]triazolo[4,3-d][1,4]diazepin-3-yl)benzyl)piperidin-4-yl)-4-phenyl-1H-imidazol-2(3H)-one]"
19,1800,"CCC(=O)Nc1ccc(-c2nnc3n2-c2cccnc2Nc2ccccc2-3)cc1 [Example 39, N-(4-(9H-benzo[f]pyrido[2,3-b][1,2,4]triazolo[4,3-d][1,4]diazepin-3-yl)phenyl)propionamide]"
20,2600,"NC1(c2ccc(-c3nnc4n3-c3cc(-c5ccccc5)cnc3Nc3ccccc3-4)cc2)CCC1 [Example 230, 1-(4-(6-phenyl-9H-benzo[f]pyrido[2,3-b][1,2,4]triazolo[4,3-d][1,4]diazepin-3-yl)phenyl)cyclobutanamine]"
21,770,"CCCc1ccccc1NC(=O)NC1CCN(Cc2ccc(-c3nnc4n3-c3cccnc3Nc3ccccc3-4)cc2)CC1 [Example 177, 1-(1-(4-(9H-benzo[f]pyrido[2,3-b][1,2,4]triazolo[4,3-d][1,4]diazepin-3-yl)benzyl)piperidin-4-yl)-3-(2-propylphenyl)urea]"
22,940,"O=C(NCCc1ccc(Cl)cc1)NC1CCN(Cc2ccc(-c3nnc4n3-c3cccnc3Nc3ccccc3-4)cc2)CC1 [Example 180, 1-(1-(4-(9H-benzo[f]pyrido[2,3-b][1,2,4]triazolo[4,3-d][1,4]diazepin-3-yl)benzyl)piperidin-4-yl)-3-(4-chlorophenethyl)urea]"
23,780,"O=C(Nc1ccc(-c2nnc3n2-c2cccnc2Nc2ccccc2-3)cc1)c1ccc(-c2ccccc2)cc1 [Example 61, N-(4-(9H-benzo[f]pyrido[2,3-b][1,2,4]triazolo[4,3-d][1,4]diazepin-3-yl)phenyl)-[1,1′-biphenyl]-4-carboxamide]"
24,580,"O=S(=O)(NC1(c2ccc(-c3nnc4n3-c3cccnc3Nc3ccccc3-4)cc2)CCC1)c1ccc(F)cc1 [Example 197, N-(1-(4-(9H-benzo[f]pyrido[2,3-b][1,2,4]triazolo[4,3-d][1,4]diazepin-3-yl)phenyl)cyclobutyl)-4-fluorobenzenesulfonamide]"
25,3400,"O=C(CCc1ccccc1)N1CCN(Cc2ccc(-c3nnc4n3-c3cccnc3Nc3ccccc3-4)cc2)CC1 [Example 135, 1-(4-(4-(9H-benzo[f]pyrido[2,3-b][1,2,4]triazolo[4,3-d][1,4]diazepin-3-yl)benzyl)piperazin-1-yl)-3-phenylpropan-1-one]"
26,340,"CC(C)(C)CC(=O)Nc1ccc(-c2nnc3n2-c2cccnc2Nc2ccccc2-3)cc1 [Example 36, N-(4-(9H-benzo[f]pyrido[2,3-b][1,2,4]triazolo[4,3-d][1,4]diazepin-3-yl)phenyl)-3,3-dimethylbutanamide]"
27,340,"CC(C)(N)c1ccc(-c2nnc3n2-c2cccnc2Nc2ccccc2-3)cc1 [Example 192, 2-(4-(9H-benzo[f]pyrido[2,3-b][1,2,4]triazolo[4,3-d][1,4]diazepin-3-yl)phenyl)propan-2-amine]"
28,6400,"CC(C)CNCc1ccc(-c2nnc3n2-c2cccnc2Nc2ccccc2-3)cc1 [Example 71, N-(4-(9H-benzo[f]pyrido[2,3-b][1,2,4]triazolo[4,3-d][1,4]diazepin-3-yl)benzyl)-2-methylpropan-1-amine]"
29,3200,"O=C(c1ccc(F)cc1)N1CCN(Cc2ccc(-c3nnc4n3-c3cccnc3Nc3ccccc3-4)cc2)CC1 [Example 132, (4-(4-(9H-benzo[f]pyrido[2,3-b][1,2,4]triazolo[4,3-d][1,4]diazepin-3-yl)benzyl)piperazin-1-yl)(4-fluorophenyl)methanone]"
30,800,"COc1ccc(S(=O)(=O)NCc2ccc(-c3nnc4n3-c3cccnc3Nc3ccccc3-4)cc2)cc1 [Example 102, N-(4-(9H-benzo[f]pyrido[2,3-b][1,2,4]triazolo[4,3-d][1,4]diazepin-3-yl)benzyl)-4-methoxybenzenesulfonamide]"

row,SMILES,IC50 [nM]
1,"OC1(c2ccccc2)CCN(Cc2ccc(-c3nnc4n3-c3cccnc3Nc3ccccc3-4)cc2)CC1 [Example 80, 1-(4-(9H-benzo[f]pyrido[2,3-b][1,2,4]triazolo[4,3-d][1,4]diazepin-3-yl)benzyl)-4-phenylpiperidin-4-ol]",1900
